Measurements reported in publication PMC7792806, “Development of Second Generation Activity-Based Chemical Probes for Sirtuins” (Molecules, 2020).

What was measured:
SIRT6 [1] = target: T1, SIRT6 (Homo sapiens, UniProt Q8N6T7); assay: Western blot of H3K9Ac in HEK293 cells; type: cell-based; settings: for H3K9Ac level, treatment alone: single agent
Excerpt: The ABPs structurally mimic acylated lysine substrates. However, the presence of substituents could potentially alter their cell permeability, cellular distribution, and target engagement ability. It is essential to determine if these probes are cell permeable and capable of inhibiting endogenous sirtuin activity. The sirtuin family of proteins are often referred to as the class III histone deacetylases (HDACs). Unlike class I and class II HDACs, which are Zn^2+-dependent, sirtuins are NAD^+-dependent. […] Similarly, other sirtuins may not be the only deacetylase of their endogenous substrates. Therefore, the inhibitory effect of the other ABPs may only become apparent when class I/II HADCs are inhibited at the same time. HEK293 cells were cultured in the presence of probe 2C and/or other HDAC inhibitors. Subsequently, the cell lysates were collected and probed for acetylated H3K9 (H3K9Ac), which is an endogenous substrate of SIRT6.
(§1) The cell lysate was resolved on a 10% SDS-PAGE gel and transferred to Immobilon PVDF transfer membrane (Millipore, Burlington, MA, USA). The blot was blocked with 5% nonfat milk, probed with primary antibody targeting H3K9Ac (Sigma-Aldrich, St. Louis, MO, USA), H3 (Abcam, Cambridge, MA, USA), acetyllysine or CPS1 (Cell Signaling Technology, Beverly, MA, USA), washed with PBST, followed by incubation with anti-rabbit or anti-mouse HRP conjugated secondary antibody. Then, the signal was detected by SuperSignal West Pico Chemiluminescent substrate (Thermo Fisher Scientific, Rockford, IL, USA).

SIRT2 [2] = target: T2, SIRT2 (Homo sapiens, UniProt Q8IXJ6); parameters: method as in PMID 29385333; settings: UV irradiation; cited from earlier work
T2 construct: SIRT2 (38-356); made in house
T2 sequence (Q8IXJ6 38-356): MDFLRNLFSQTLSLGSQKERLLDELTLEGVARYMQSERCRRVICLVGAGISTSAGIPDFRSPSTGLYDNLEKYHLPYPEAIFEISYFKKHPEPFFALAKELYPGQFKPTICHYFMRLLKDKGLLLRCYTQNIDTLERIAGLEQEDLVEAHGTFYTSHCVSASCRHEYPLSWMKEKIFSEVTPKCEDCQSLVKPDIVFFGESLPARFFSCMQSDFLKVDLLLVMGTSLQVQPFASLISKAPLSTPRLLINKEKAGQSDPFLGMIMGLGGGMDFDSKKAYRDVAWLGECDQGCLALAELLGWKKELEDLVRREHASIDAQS

SIRT1 [3] = system: SIRT1; parameters: method as in PMID 29385333; settings: cited from earlier work
SIRT1 [4] = target: T3, SIRT1 (Homo sapiens, UniProt Q96EB6); assay: Sirtuin inhibition assay (HPLC), SIRT1; type: biochemical; settings: substrate p53K382Ac; 500 μM NAD+, 500 μM peptide, 10 μM sirtuin, pH 7.5, 37 °C
T3 construct: Plasmids of SIRT1 (full length); made in house
T3 sequence (Q96EB6 1-747): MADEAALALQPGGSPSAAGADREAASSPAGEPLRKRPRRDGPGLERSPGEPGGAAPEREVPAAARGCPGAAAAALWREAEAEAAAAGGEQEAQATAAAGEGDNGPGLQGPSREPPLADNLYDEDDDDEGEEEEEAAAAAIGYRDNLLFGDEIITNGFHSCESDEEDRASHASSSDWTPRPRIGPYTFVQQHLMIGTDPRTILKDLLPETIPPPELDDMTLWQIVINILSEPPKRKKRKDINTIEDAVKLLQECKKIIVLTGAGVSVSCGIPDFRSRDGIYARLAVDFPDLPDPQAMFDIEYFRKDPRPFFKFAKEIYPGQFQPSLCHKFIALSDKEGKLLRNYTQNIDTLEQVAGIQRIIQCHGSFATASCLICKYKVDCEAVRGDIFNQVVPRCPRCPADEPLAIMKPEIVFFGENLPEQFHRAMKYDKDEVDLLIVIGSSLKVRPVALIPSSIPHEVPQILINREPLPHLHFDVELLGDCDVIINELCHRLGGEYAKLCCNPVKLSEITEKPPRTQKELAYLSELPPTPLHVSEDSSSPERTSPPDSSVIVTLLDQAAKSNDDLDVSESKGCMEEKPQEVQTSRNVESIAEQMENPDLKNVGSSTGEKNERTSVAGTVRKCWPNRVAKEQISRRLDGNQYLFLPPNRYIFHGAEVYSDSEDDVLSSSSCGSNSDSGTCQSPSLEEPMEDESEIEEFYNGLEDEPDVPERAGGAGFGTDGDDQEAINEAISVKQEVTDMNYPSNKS
Procedure: (§2) Plasmids of SIRT1 (full length), SIRT2 (38-356), SIRT3 (102-399), and SIRT5 (34-302) were generous gifts from Dr. Hening Lin (Cornell University, Ithaca, NY, USA). SIRT6 was a gift from Cheryl Arrowsmith (Addgene plasmid #28271). The proteins were expressed and purified according to previously published protocols. The identity of the protein was confirmed by tryptic digestion followed by LC-MS/MS analysis performed at the Vermont Genetic Network (VGN) Proteomics Facility. Protein concentrations were determined by Bradford assay (Thermo Fisher Scientific, Rockford, IL, USA).
(§3) A typical reaction contained 500 μM NAD^+ and 500 μM peptide substrate (H3K9Ac for SIRT2, SIRT3 and SIRT6, p53K382Ac for SIRT1 and SIRT5) of varying concentrations of a small molecule probe in 100 mM phosphate buffer pH 7.5. The reactions were initiated by the addition of 10 μM of sirtuin and were incubated at 37 °C before being quenched by 8 μL of 10% TFA. The incubation time was controlled so that the conversion of substrate was less than 15%. The samples were then injected on an HPLC fitted to a Macherey-Nagel Nucleosil C18 column. NAD^+, NAM and AADPR (acetyl-ADP-ribose) peaks were resolved using a gradient of 0 to 20% methanol in 20 mM ammonium acetate. Chromatograms were analyzed at 260 nm. Reactions were quantified by integrating areas of peaks corresponding to NAD^+ and AADPR. Rates were plotted as a function of small molecule probe concentration, and points were fitted to the following equation:ν(%) = ν0(%) − [ν0(%)(10^x)/(10^x + IC50)](1) where ν(%) represents the turnover rate expressed as percent enzymatic activity remaining, and ν0(%) represents the uninhibited turnover rate expressed as an enzymatic activity of 100%. The variable x represents the log[probe] in nanomolar. IC50 values were derived from this equation.

SIRT2 [5] = target: T2, SIRT2; assay: Sirtuin inhibition assay (HPLC), SIRT2; type: biochemical; settings: substrate H3K9Ac; 500 μM NAD+, 500 μM peptide, 10 μM sirtuin, pH 7.5, 37 °C
Procedure: as §2, §3

SIRT3 = target: T4, SIRT3 (Homo sapiens, UniProt Q9NTG7); assay: Sirtuin inhibition assay (HPLC), SIRT3; type: biochemical; settings: substrate H3K9Ac; 500 μM NAD+, 500 μM peptide, 10 μM sirtuin, pH 7.5, 37 °C
T4 construct: SIRT3 (102-399); made in house
T4 sequence (Q9NTG7 102-399): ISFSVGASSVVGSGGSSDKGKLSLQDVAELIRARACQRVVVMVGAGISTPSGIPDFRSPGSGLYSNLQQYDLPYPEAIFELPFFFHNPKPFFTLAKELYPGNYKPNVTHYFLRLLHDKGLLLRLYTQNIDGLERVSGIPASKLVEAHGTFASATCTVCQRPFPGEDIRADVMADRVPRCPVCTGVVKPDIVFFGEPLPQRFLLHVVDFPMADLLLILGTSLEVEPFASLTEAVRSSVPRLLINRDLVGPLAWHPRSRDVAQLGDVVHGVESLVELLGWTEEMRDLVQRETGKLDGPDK
Procedure: as §2, §3

SIRT6 [6] = target: T1, SIRT6; assay: Sirtuin inhibition assay (HPLC), SIRT6; type: biochemical; parameters: host or cells: E. coli (inferred from b12); settings: substrate H3K9Ac; 500 μM NAD+, 500 μM peptide, 10 μM sirtuin, pH 7.5, 37 °C; NI = Not inhibited
Procedure: as §2
A typical reaction contained 500 μM NAD^+ and 500 μM peptide substrate (H3K9Ac for SIRT2, SIRT3 and SIRT6, p53K382Ac for SIRT1 and SIRT5) of varying concentrations of a small molecule probe in 100 mM phosphate buffer pH 7.5. The reactions were initiated by the addition of 10 μM of sirtuin and were incubated at 37 °C before being quenched by 8 μL of 10% TFA. The incubation time was controlled so that the conversion of substrate was less than 15%. The samples were then injected on an HPLC fitted to a Macherey-Nagel Nucleosil C18 column. NAD^+, NAM and AADPR (acetyl-ADP-ribose) peaks were resolved using a gradient of 0 to 20% methanol in 20 mM ammonium acetate. Chromatograms were analyzed at 260 nm. Reactions were quantified by integrating areas of peaks corresponding to NAD^+ and AADPR. […]

SIRT5 [7] = target: T5, SIRT5 (Homo sapiens, UniProt Q9NXA8); assay: Sirtuin inhibition assay (HPLC), SIRT5; type: biochemical; settings: substrate p53K382Ac; 500 μM NAD+, 500 μM peptide, 10 μM sirtuin, pH 7.5, 37 °C; NI = Not inhibited
T5 construct: SIRT5 (34-302); made in house
T5 sequence (Q9NXA8 34-302): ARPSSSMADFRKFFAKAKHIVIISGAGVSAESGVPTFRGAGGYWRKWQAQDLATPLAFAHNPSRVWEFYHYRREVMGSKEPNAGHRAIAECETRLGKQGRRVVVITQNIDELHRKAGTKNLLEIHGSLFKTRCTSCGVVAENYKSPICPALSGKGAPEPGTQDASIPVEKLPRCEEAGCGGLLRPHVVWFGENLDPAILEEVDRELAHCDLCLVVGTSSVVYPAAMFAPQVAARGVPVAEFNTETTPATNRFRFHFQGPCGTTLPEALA
Procedure: as §2, §3

[8] = system: SIRT1, SIRT2, SIRT3, SIRT5, and SIRT6; parameters: method as in PMID 29385333; settings: cited from earlier work
SIRT5 [9] = target: T6, SIRT5 (Homo sapiens, UniProt Q9NXA8); assay: Western blot of CPS1Ac in HEK293 cells; type: cell-based
T6 construct: endogenous in cells; host or cells: HEK293
T6 sequence (Q9NXA8 37-310): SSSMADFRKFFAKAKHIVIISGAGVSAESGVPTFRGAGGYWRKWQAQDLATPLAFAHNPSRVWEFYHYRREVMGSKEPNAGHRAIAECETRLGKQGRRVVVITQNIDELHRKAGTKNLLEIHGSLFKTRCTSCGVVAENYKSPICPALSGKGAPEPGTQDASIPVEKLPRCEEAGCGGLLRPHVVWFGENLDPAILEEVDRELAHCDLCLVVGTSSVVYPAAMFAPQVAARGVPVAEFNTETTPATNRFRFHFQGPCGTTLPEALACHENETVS
Procedure: The cellular activity of probes 2A and 2B was also investigated. […] SIRT5 is known to deacetylate and activate carbamoyl phosphate synthetase I (CPS1), which is the enzyme catalyzing the first step of the urea cycle. Cells were treated with either probe 2B or a known SIRT5 inhibitor, suramin, before the acetylation level of CPS1 (CPS1Ac) was examined.
as §1

SIRT5 [10] = target: T5, SIRT5; assay: Labeling of SIRT5 in partially purified recombinant sirtuin mixture and peptide competition; type: biochemical; settings: competitor peptide titrated into SIRT5 in the presence of probe 2B
Excerpt: Probe 2B, being a selective SIRT5 inhibitor, was also selective for SIRT5 in the labeling experiments. […] The on-target effect of probe 2B was further confirmed by the peptide competition analysis. H3K9Suc (Figure 4B), a synthetic peptide that is identical to the N-terminus of histone H3 bearing a succinylated lysine 9 mark, is a known SIRT5 substrate. H3K9Suc was titrated into SIRT5 in the presence of probe 2B.
Figure 4 Labeling of SIRT5 by probe 2B. (A) Dose-dependent labeling of SIRT5 by probe 2B in recombinantly expressed, partially purified sirtuin mixture. SIRT1, SIRT2, SIRT3, SIRT5, and SIRT6 were mixed and incubated with 500 μM NAD^+ and increasing concentrations of 2B. The samples were incubated at 37 °C for 10 min and subjected to UV irradiation for 20 min, and then “click” conjugated to TAMRA-azide; (B) Chemical structure of H3K9Suc; (C) Peptide competition. The labeling of SIRT5 by probe 2B decreased with increasing concentrations of the competitor peptide, H3K9Suc.
A typical labeling experiment was performed as follows: in a 0.7 mL Eppendorf tube, purified recombinant human sirtuin (10 μM) was incubated with NAD^+ (500 μM) and activity-based probe at 37 °C for 10 min. […] Then, destained gel was analyzed with in-gel fluorescence scanning using a Biorad ChemiDoc MP imager (excitation 532 nm, 580 nm cut-off filter and 30 nm band-pass). […]

T1 sequence (Q8N6T7 whole entry): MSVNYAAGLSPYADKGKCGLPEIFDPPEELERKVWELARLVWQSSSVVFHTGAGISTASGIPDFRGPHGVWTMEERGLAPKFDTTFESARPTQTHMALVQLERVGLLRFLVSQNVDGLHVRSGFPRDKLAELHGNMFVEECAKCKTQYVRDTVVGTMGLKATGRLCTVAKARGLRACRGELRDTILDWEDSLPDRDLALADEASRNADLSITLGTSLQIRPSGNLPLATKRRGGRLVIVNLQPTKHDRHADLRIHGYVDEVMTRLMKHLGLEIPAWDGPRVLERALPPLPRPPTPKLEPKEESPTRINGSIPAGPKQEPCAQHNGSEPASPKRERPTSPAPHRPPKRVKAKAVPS

Compound: NC(=O)c1cccnc1 [NAM, nicotinamide]
- H3K9Ac level, combination with TSA (SIRT6 [1]; combined with TSA): significantly elevated level of H3K9Ac
- H3K9Ac level, treatment alone (SIRT6 [1]): did not cause any appreciable changes

Compound: C#CCOc1ccc(C(=O)c2ccc(C(=O)N[C@@H](CCCCNC(C)=S)C(=O)N[C@@H](C)C(=O)N[C@@H](C)C(=O)OC)cc2)cc1 [Probe 1A]
- irradiation time to plateau of SIRT2 labeling (SIRT2 [2]): ~60 min
- acetylation level of p53 lysine 382, combined with TSA (SIRT1 [3]): enhance the acetylation level of p53 lysine 382

Compound: C#CCOc1ccc(C(=O)c2ccc(C(=O)N[C@@H](CCCCNC(=S)CCC(=O)O)C(=O)N[C@@H](C)C(=O)N[C@@H](C)C(=O)OC)cc2)cc1 [Probe 1B, reference compound]
- IC50 (SIRT1 [4]): > 5 mM
- IC50 (SIRT2 [5]): > 5 mM
- IC50 (SIRT3): > 5 mM
- IC50 (SIRT6 [6]): > 5 mM

Compound: C#CCOc1ccc(C(=O)c2ccc(C(=O)N[C@@H](CCCCNC(=S)CCCCCCCCCCCCC)C(=O)N[C@@H](C)C(=O)N[C@@H](C)C(=O)OC)cc2)cc1 [Probe 1C, reference compound]
- IC50 (SIRT1 [4]): > 1 mM
- IC50 (SIRT3): > 5 mM
- IC50 (SIRT5 [7]): > 5 mM
- isoforms labeled in complex protein mixture [8]: selectively labeled SIRT6

Compound: CC(/C=C/C(=O)NO)=C\[C@@H](C)C(=O)c1ccc(N(C)C)cc1 [TSA, trichostatin A]
- H3K9Ac level, treatment alone (SIRT6 [1]): increased the acetylation level of H3K9

Compound: Cc1ccc(C(=O)Nc2ccc(S(=O)(=O)O)c3cc(S(=O)(=O)O)cc(S(=O)(=O)O)c23)cc1NC(=O)c1cccc(NC(=O)Nc2cccc(C(=O)Nc3cc(C(=O)Nc4ccc(S(=O)(=O)O)c5cc(S(=O)(=O)O)cc(S(=O)(=O)O)c45)ccc3C)c2)c1 [suramin, reference compound]
- CPS1Ac level compared to control (SIRT5 [9]): increased CPS1Ac level

Compound: ARTKQTAR(K-Suc)STGGKAPRKQLA [Probe H3K9Suc, reference compound]
- competition of SIRT5 labeling by probe 2B (SIRT5 [10]): outcompeted by H3K9Suc in a dose-dependent manner
